Assays:
Type in all cases: ADME
[1] = The drug is tested on Alloscardovia omnicolens strain: DSM21503 for biotransformation under anaerobic condition. The drug concentrations were measured over 6 timepoints collected between 0 and 12 hours of incubation by liquid-chromatography-coupled mass spectrometry (LC–MS); design: dose 5 uM, timepoint 0, 1.5, 3, 6, 9, 12 hours; conditions: 5 µM
[2] = The drug is tested on Bacteroides thetaiotaomicron strain: DSM2079 for biotransformation under anaerobic condition. The drug concentrations were measured over 6 timepoints collected between 0 and 12 hours of incubation by liquid-chromatography-coupled mass spectrometry (LC–MS); design: dose 5 uM, timepoint 0, 1.5, 3, 6, 9, 12 hours; conditions: 5 µM
[3] = The drug is tested on Bacteroides xylanisolvens strain: HM 722 for biotransformation under anaerobic condition. The drug concentrations were measured over 6 timepoints collected between 0 and 12 hours of incubation by liquid-chromatography-coupled mass spectrometry (LC–MS); design: dose 5 uM, timepoint 0, 1.5, 3, 6, 9, 12 hours; conditions: 5 µM
[4] = The drug is tested on Blautia hansenii strain: DSM20583 for biotransformation under anaerobic condition. The drug concentrations were measured over 6 timepoints collected between 0 and 12 hours of incubation by liquid-chromatography-coupled mass spectrometry (LC–MS); design: dose 5 uM, timepoint 0, 1.5, 3, 6, 9, 12 hours; conditions: 5 µM
[5] = The drug is tested on Clostridium scindens strain: DSM5676 for biotransformation under anaerobic condition. The drug concentrations were measured over 6 timepoints collected between 0 and 12 hours of incubation by liquid-chromatography-coupled mass spectrometry (LC–MS); design: dose 5 uM, timepoint 0, 1.5, 3, 6, 9, 12 hours; conditions: 5 µM
[6] = The drug is tested on Eubacterium eligens strain: DSM3376 for biotransformation under anaerobic condition. The drug concentrations were measured over 6 timepoints collected between 0 and 12 hours of incubation by liquid-chromatography-coupled mass spectrometry (LC–MS); design: dose 5 uM, timepoint 0, 1.5, 3, 6, 9, 12 hours; conditions: lachnospira eligens, 5 µM
[7] = The drug is tested on Eubacterium hallii strain: DSM3353 for biotransformation under anaerobic condition. The drug concentrations were measured over 6 timepoints collected between 0 and 12 hours of incubation by liquid-chromatography-coupled mass spectrometry (LC–MS); design: dose 5 uM, timepoint 0, 1.5, 3, 6, 9, 12 hours; conditions: anaerobutyricum hallii, 5 µM
[8] = The drug is tested on Faecalibacterium prausnitzii strain: DSM17677 for biotransformation under anaerobic condition. The drug concentrations were measured over 6 timepoints collected between 0 and 12 hours of incubation by liquid-chromatography-coupled mass spectrometry (LC–MS); design: dose 5 uM, timepoint 0, 1.5, 3, 6, 9, 12 hours; conditions: faecalibacterium duncaniae, 5 µM
[9] = The drug is tested on Lactobacillus gasseri strain: DSM20243 for biotransformation under anaerobic condition. The drug concentrations were measured over 6 timepoints collected between 0 and 12 hours of incubation by liquid-chromatography-coupled mass spectrometry (LC–MS); design: dose 5 uM, timepoint 0, 1.5, 3, 6, 9, 12 hours; conditions: 5 µM
[10] = The drug is tested on Roseburia intestinalis strain: DSM14610 for biotransformation under anaerobic condition. The drug concentrations were measured over 6 timepoints collected between 0 and 12 hours of incubation by liquid-chromatography-coupled mass spectrometry (LC–MS); design: dose 5 uM, timepoint 0, 1.5, 3, 6, 9, 12 hours; conditions: 5 µM
[11] = The drug is tested on Streptococcus mitis strain: DSM12643 for biotransformation under anaerobic condition. The drug concentrations were measured over 6 timepoints collected between 0 and 12 hours of incubation by liquid-chromatography-coupled mass spectrometry (LC–MS); design: dose 5 uM, timepoint 0, 1.5, 3, 6, 9, 12 hours; conditions: 5 µM
[12] = The drug is tested on Enterococcus faecalis strain: ATCC29212 for biotransformation under anaerobic condition. The drug concentrations were measured over 6 timepoints collected between 0 and 12 hours of incubation by liquid-chromatography-coupled mass spectrometry (LC–MS); design: dose 5 uM, timepoint 0, 1.5, 3, 6, 9, 12 hours; conditions: 5 µM
[13] = The drug is tested on Akkermansia muciniphila strain: DSM22959 for biotransformation under anaerobic condition. The drug concentrations were measured over 6 timepoints collected between 0 and 12 hours of incubation by liquid-chromatography-coupled mass spectrometry (LC–MS); design: dose 5 uM, timepoint 0, 1.5, 3, 6, 9, 12 hours; conditions: 5 µM
[14] = The drug is tested on Actinomyces naeslundi strain: DSM43013 for biotransformation under microaerobic condition. The drug concentrations were measured over 6 timepoints collected between 0 and 12 hours of incubation by liquid-chromatography-coupled mass spectrometry (LC–MS); design: dose 5 uM, timepoint 0, 1.5, 3, 6, 9, 12 hours; conditions: actinomyces naeslundii, 5 µM
[15] = The drug is tested on Capnocytophaga ochracea strain: DSM7271 for biotransformation under microaerobic condition. The drug concentrations were measured over 6 timepoints collected between 0 and 12 hours of incubation by liquid-chromatography-coupled mass spectrometry (LC–MS); design: dose 5 uM, timepoint 0, 1.5, 3, 6, 9, 12 hours; conditions: 5 µM
[16] = The drug is tested on Lactobacillus reuteri strain: DSM20016 for biotransformation under microaerobic condition. The drug concentrations were measured over 6 timepoints collected between 0 and 12 hours of incubation by liquid-chromatography-coupled mass spectrometry (LC–MS); design: dose 5 uM, timepoint 0, 1.5, 3, 6, 9, 12 hours; conditions: limosilactobacillus reuteri, 5 µM
[17] = The drug is tested on Lactobacillus ruminis strain: ATCC25644 for biotransformation under microaerobic condition. The drug concentrations were measured over 6 timepoints collected between 0 and 12 hours of incubation by liquid-chromatography-coupled mass spectrometry (LC–MS); design: dose 5 uM, timepoint 0, 1.5, 3, 6, 9, 12 hours; conditions: ligilactobacillus ruminis, 5 µM
[18] = The drug is tested on Streptococcus anginosus strain: DSM20563 for biotransformation under microaerobic condition. The drug concentrations were measured over 6 timepoints collected between 0 and 12 hours of incubation by liquid-chromatography-coupled mass spectrometry (LC–MS); design: dose 5 uM, timepoint 0, 1.5, 3, 6, 9, 12 hours; conditions: 5 µM
[19] = The drug is tested on the gut metagenome community of A-06 with ENA study accession number: PRJEB31790 for biotransformation under anaerobic condition. The drug concentrations were measured over 7 timepoints collected between 0 and 12 hours of incubation by liquid-chromatography-coupled mass spectrometry (LC–MS); design: dose 5 uM, timepoint 0, 0.75, 1.5, 3, 6, 9, 12 hours; conditions: 5 µM
[20] = The drug is tested on the gut metagenome community of P-02 with ENA study accession number: PRJEB31790 for biotransformation under anaerobic condition. The drug concentrations were measured over 7 timepoints collected between 0 and 12 hours of incubation by liquid-chromatography-coupled mass spectrometry (LC–MS); design: dose 5 uM, timepoint 0, 0.75, 1.5, 3, 6, 9, 12 hours; conditions: 5 µM
[21] = The drug is tested on the gut metagenome community of P-04 with ENA study accession number: PRJEB31790 for biotransformation under anaerobic condition. The drug concentrations were measured over 7 timepoints collected between 0 and 12 hours of incubation by liquid-chromatography-coupled mass spectrometry (LC–MS); design: dose 5 uM, timepoint 0, 0.75, 1.5, 3, 6, 9, 12 hours; conditions: 5 µM
[22] = The drug is tested on the gut metagenome community of T-02 with ENA study accession number: PRJEB31790 for biotransformation under anaerobic condition. The drug concentrations were measured over 7 timepoints collected between 0 and 12 hours of incubation by liquid-chromatography-coupled mass spectrometry (LC–MS); design: dose 5 uM, timepoint 0, 0.75, 1.5, 3, 6, 9, 12 hours; conditions: 5 µM
[23] = The drug is tested on the gut metagenome community of A-06 with ENA study accession number: PRJEB31790 for biotransformation under microaerobic condition. The drug concentrations were measured over 7 timepoints collected between 0 and 12 hours of incubation by liquid-chromatography-coupled mass spectrometry (LC–MS); design: dose 5 uM, timepoint 0, 0.75, 1.5, 3, 6, 9, 12 hours; conditions: 5 µM
[24] = The drug is tested on the gut metagenome community of P-02 with ENA study accession number: PRJEB31790 for biotransformation under microaerobic condition. The drug concentrations were measured over 7 timepoints collected between 0 and 12 hours of incubation by liquid-chromatography-coupled mass spectrometry (LC–MS); design: dose 5 uM, timepoint 0, 0.75, 1.5, 3, 6, 9, 12 hours; conditions: 5 µM
[25] = The drug is tested on the gut metagenome community of T-03 with ENA study accession number: PRJEB31790 for biotransformation under microaerobic condition. The drug concentrations were measured over 7 timepoints collected between 0 and 12 hours of incubation by liquid-chromatography-coupled mass spectrometry (LC–MS); design: dose 5 uM, timepoint 0, 0.75, 1.5, 3, 6, 9, 12 hours; conditions: 5 µM
[26] = The drug is tested on the gut metagenome community of T-05 with ENA study accession number: PRJEB31790 for biotransformation under microaerobic condition. The drug concentrations were measured over 7 timepoints collected between 0 and 12 hours of incubation by liquid-chromatography-coupled mass spectrometry (LC–MS); design: dose 5 uM, timepoint 0, 0.75, 1.5, 3, 6, 9, 12 hours; conditions: 5 µM

SMILES: Cn1cnc([N+](=O)[O-])c1Sc1ncnc2nc[nH]c12 [AZATHIOPRINE]
- Bacterial Biotransformation [1]: Compound metabolized
- Bacterial Biotransformation [2]: Compound metabolized
- Bacterial Biotransformation [3]: Compound metabolized
- Bacterial Biotransformation [4]: Compound NOT metabolized
- Bacterial Biotransformation [5]: Compound metabolized
- Bacterial Biotransformation [6]: Compound metabolized
- Bacterial Biotransformation [7]: Compound metabolized
- Bacterial Biotransformation [8]: Compound metabolized
- Bacterial Biotransformation [9]: Compound NOT metabolized
- Bacterial Biotransformation [10]: Compound metabolized
- Bacterial Biotransformation [11]: Compound metabolized
- Bacterial Biotransformation [12]: Compound metabolized
- Bacterial Biotransformation [13]: Compound metabolized
- Bacterial Biotransformation [14]: Compound NOT metabolized
- Bacterial Biotransformation [15]: Compound metabolized
- Bacterial Biotransformation [16]: Compound metabolized
- Bacterial Biotransformation [17]: Compound metabolized
- Bacterial Biotransformation [18]: Compound metabolized
- Bacterial Biotransformation [19]: Compound metabolized
- Bacterial Biotransformation [20]: Compound NOT metabolized
- Bacterial Biotransformation [21]: Compound NOT metabolized
- Bacterial Biotransformation [22]: Compound NOT metabolized
- Bacterial Biotransformation [23]: Compound metabolized
- Bacterial Biotransformation [24]: Compound NOT metabolized
- Bacterial Biotransformation [25]: Compound metabolized
- Bacterial Biotransformation [26]: Compound NOT metabolized

SMILES: C[C@H]1C[C@H]2[C@@H]3CCC4=CC(=O)C=C[C@]4(C)[C@@]3(F)[C@@H](O)C[C@]2(C)[C@@]1(O)C(=O)CO [BETAMETHASONE]
- Bacterial Biotransformation [1]: Compound NOT metabolized
- Bacterial Biotransformation [2]: Compound NOT metabolized
- Bacterial Biotransformation [3]: Compound NOT metabolized
- Bacterial Biotransformation [4]: Compound NOT metabolized
- Bacterial Biotransformation [5]: Compound metabolized
- Bacterial Biotransformation [6]: Compound NOT metabolized
- Bacterial Biotransformation [7]: Compound NOT metabolized
- Bacterial Biotransformation [8]: Compound NOT metabolized
- Bacterial Biotransformation [9]: Compound NOT metabolized
- Bacterial Biotransformation [10]: Compound NOT metabolized
- Bacterial Biotransformation [11]: Compound NOT metabolized
- Bacterial Biotransformation [12]: Compound NOT metabolized
- Bacterial Biotransformation [13]: Compound NOT metabolized
- Bacterial Biotransformation [14]: Compound NOT metabolized
- Bacterial Biotransformation [15]: Compound NOT metabolized
- Bacterial Biotransformation [16]: Compound NOT metabolized
- Bacterial Biotransformation [17]: Compound NOT metabolized
- Bacterial Biotransformation [18]: Compound NOT metabolized
- Bacterial Biotransformation [19]: Compound metabolized
- Bacterial Biotransformation [20]: Compound metabolized
- Bacterial Biotransformation [21]: Compound NOT metabolized
- Bacterial Biotransformation [22]: Compound metabolized
- Bacterial Biotransformation [23]: Compound NOT metabolized
- Bacterial Biotransformation [24]: Compound NOT metabolized
- Bacterial Biotransformation [25]: Compound NOT metabolized
- Bacterial Biotransformation [26]: Compound NOT metabolized

SMILES: CCCC1O[C@@H]2C[C@H]3[C@@H]4CCC5=CC(=O)C=C[C@]5(C)[C@H]4[C@@H](O)C[C@]3(C)[C@]2(C(=O)CO)O1 (stereo partly drawn) [BUDESONIDE]
- Bacterial Biotransformation [1]: Compound NOT metabolized
- Bacterial Biotransformation [2]: Compound NOT metabolized
- Bacterial Biotransformation [3]: Compound NOT metabolized
- Bacterial Biotransformation [4]: Compound NOT metabolized
- Bacterial Biotransformation [5]: Compound NOT metabolized
- Bacterial Biotransformation [6]: Compound NOT metabolized
- Bacterial Biotransformation [7]: Compound NOT metabolized
- Bacterial Biotransformation [8]: Compound NOT metabolized
- Bacterial Biotransformation [9]: Compound NOT metabolized
- Bacterial Biotransformation [10]: Compound NOT metabolized
- Bacterial Biotransformation [11]: Compound NOT metabolized
- Bacterial Biotransformation [12]: Compound NOT metabolized
- Bacterial Biotransformation [13]: Compound NOT metabolized
- Bacterial Biotransformation [14]: Compound NOT metabolized
- Bacterial Biotransformation [15]: Compound NOT metabolized
- Bacterial Biotransformation [16]: Compound NOT metabolized
- Bacterial Biotransformation [17]: Compound NOT metabolized
- Bacterial Biotransformation [18]: Compound NOT metabolized
- Bacterial Biotransformation [19]: Compound metabolized
- Bacterial Biotransformation [20]: Compound metabolized
- Bacterial Biotransformation [21]: Compound NOT metabolized
- Bacterial Biotransformation [22]: Compound NOT metabolized
- Bacterial Biotransformation [23]: Compound metabolized
- Bacterial Biotransformation [24]: Compound NOT metabolized
- Bacterial Biotransformation [25]: Compound NOT metabolized
- Bacterial Biotransformation [26]: Compound NOT metabolized

— ChEMBL document CHEMBL5724806, “Unraveling interindividual differences and functional consequences of gut microbial metabolism of immunosuppressants” (2024)
